From patent US20050100617A1, “Method for improving age-related physiological deficits and increasing longevity” (priority 2001, published 2005)

Tested on: skeletal muscle (gastrocnemius) gene expression
Test: Gene expression profiling in skeletal muscle, short-term (3 months) dietary intervention in young mice
Assay type: in vivo
Conditions: 3 months treatment
Experimental: For each target gene, the fold change is calculated as follows: [Expression obtained with the experimental diet] divided by [Expression obtained with control diet]. Consequently, fold changes of all target genes are equal to 1 (one) for the control diet. Thus, fold changes refers to the modulation of expression of a given target gene in muscle tissue after 3 months feeding with an experimental diet, for example, diets B, C, D, or F, when compared to the expression of the same gene in muscle tissue of the control group (diet A).
Dietary intervention was of 3 months, all animal groups were fed Ad libitum except for the group of caloric restricted mice which as fed 67% of the daily food consumed by the control Ad libitum group. Animal weight was measured once a week.
The effect of short and long nutritional intervention was investigated. The short-term dietary interventions with diet A, B, C, D and F was initiated in young mice and lasted for three months. In a similar way, long-term interventions were initiated at three months of age for the following diets A and B and D and lasted twenty-one months.
Male mice C57/B16 were obtained from Iffa credo (France) at 9 weeks of age. Upon arrival mice were housed by groups of 6 animals. After 3 weeks adaptation, mice (12 weeks old) were randomized 6 groups (A to F) of 12 mice each and housed individually. Dietary intervention was of 3 months; mice had free access to water and were submitted to 12 hours light and dark cycles.
The control diet (diet A) composed of 18% proteins (soy and whey), 11% fat (soybean oil), 59% carbohydrates (starch+sucrose) and 10% cellulose was supplemented with either a cocktail of antioxidants comprising vitamin C, vitamin E, grape seed extract and cysteine (diet C) and/or L-camitine (diet D and F respectively). For caloric restriction (diet B) fat, starch and sucrose were reduced to provide 67% of the daily calorie consumption of the Ad-lib control group while providing 100% for proteins, minerals and vitamins. These diets are as follows: • Diet A—Control: 18% proteins (soy and whey), 11% fat, 59% carbohydrates, 5% cellulose. • Diet B—Caloric restriction: 18% proteins (soy and whey), 7.7% fat, 32.5% carbohydrates, 5% cellulose • Diet C—Cocktail of antioxidants : Diet A+0.19% vit C, 0.03% vit E, 0.075% grape seed extract, 0.4% cysteine. • Diet D: Carnitine and Antioxidants: Diet A+0.3% L- camitine+cocktail of antioxidants of diet C. • Diet F: Carnitine: Diet A+0.3% L- carnitine
Mice were decapitated and dissected rapidly. Skeletal muscles (gastrocnemius) were immersed in RNAlatter (Ambion) and frozen at −80° C. until use. For RNA extraction, muscles were homogenized with ceramic beads (FastPrep, Q-Biogene) and the RNA extracted with Totally RNA kit (Ambion). The quality of the RNA was checked by Agilent technology. RNA pools from four mice each were created and hybridized to Affymetrix Murine U74Av2 high-density oligonucleotide microarrays.
The Global Error Assessment (GEA) methodology was used to select differentially expressed genes in the present invention. See Bioinformatics, Vol. 20, No. 16 (Oxford University Press 2004) pp. 2726-2737, the content of which is hereby incorporated by reference thereto. The goal was to select genes with statistically significant differential expression between treatments and ages of the mice of the study.

## C[N+](C)(C)C[C@H](O)CC(=O)[O-] [Carnitine, L-carnitine]
  Fold Changes 0610013E23Rik (RIKEN cDNA 0610013E23 gene): 0.6 fold
  Fold Changes 2010012F05Rik (RIKEN cDNA 2010012F05 gene): 0.8 fold
  Fold Changes 2210419D22Rik (RIKEN cDNA 2210419D22 gene): 0.8 fold
  Fold Changes 2310016A09Rik (RIKEN cDNA 2310016A09 gene): 0.7 fold
  Fold Changes 2310073E15Rik (RIKEN cDNA 2310073E15 gene): 1.2 fold
  Fold Changes 2610034N03Rik (RIKEN cDNA 2610034N03 gene): 0.5 fold
  Fold Changes 2700059D21Rik (RIKEN cDNA 2700059D21 gene): 0.5 fold
  Fold Changes 3110038L01Rik (RIKEN cDNA 3110038L01 gene): 1.4 fold
  Fold Changes 4732477C12Rik (RIKEN cDNA 4732477C12 gene): 1.2 fold
  Fold Changes 5730454B08Rik (RIKEN cDNA 5730454B08 gene): 0.8 fold
  Fold Changes 5730497N03Rik (RIKEN cDNA 5730497N03 gene): 0.2 fold
  Fold Changes 6330407G11Rik (RIKEN cDNA 6330407G11 gene): 0.6 fold
  Fold Changes 6720463E02Rik (RIKEN cDNA 6720463E02 gene): 1.3 fold
  Fold Changes Actb (actin, beta, cytoplasmic): 1.4 fold
  Fold Changes Akt1s1 (AKT1 substrate 1 (proline-rich)): 1.4 fold
  Fold Changes Aldh2 (aldehyde dehydrogenase 2, mitochondrial): 1.7 fold
  Fold Changes Anp32e (acidic (leucine-rich) nuclear phosphoprotein 32 family, member E): 0.6 fold
  Fold Changes Apobec2 (apolipoprotein B editing complex 2): 0.5 fold
  Fold Changes Arid1a (AT rich interactive domain 1A (Swi1 like)): 0.6 fold
  Fold Changes Arpc2 (actin related protein 2/3 complex, subunit 2): 0.6 fold
  Fold Changes Atp1b2 (ATPase, Na+/K+ transporting, beta 2 polypeptide): 4.1 fold
  Fold Changes Atp13a (ATPase type 13A): 0.7 fold
  Fold Changes Birc4 (baculoviral IAP repeat-containing 4): 5.9 fold
  Fold Changes C4 (complement component 4 (within H-2S)): 0.6 fold
  Fold Changes Camk2a (calcium/calmodulin-dependent protein kinase II alpha): 4.6 fold
  Fold Changes Capza2 (capping protein (actin filament) muscle Z-line, alpha 2): 0.7 fold
  Fold Changes Capzb (capping protein (actin filament) muscle Z-line, beta): 0.6 fold
  Fold Changes Car4 (carbonic anhydrase 4): 2.3 fold
  Fold Changes Cbfb (core binding factor beta): 0.7 fold
  Fold Changes Ccl9 (chemokine (C-C motif) ligand 9): 0.5 fold
  Fold Changes Cd97 (CD97 antigen): 5.4 fold
  Fold Changes Cd164 (CD164 antigen): 0.8 fold
  Fold Changes Cdh10 (cadherin 10): 0.4 fold
  Fold Changes Cebpd (CCAAT/enhancer binding protein (C/EBP), delta): 0.5 fold
  Fold Changes Copb2 (coatomer protein complex, subunit beta 2 (beta prime)): 0.7 fold
  Fold Changes Cpd (carboxypeptidase D): 1.9 fold
  Fold Changes D8Ertd69e (DNA segment, Chr 8, ERATO Doi 69, expressed): 1.2 fold
  Fold Changes D19Ertd678e (DNA segment, Chr 19, ERATO Doi 678, expressed): 5.2 fold
  Fold Changes Ddb1 (damage specific DNA binding protein 1): 0.7 fold
  Fold Changes Deb1 (differentially expressed in B16F10 1): 0.8 fold
  Fold Changes Dyrk1a (dual-specificity tyrosine-(Y)-phosphorylation regulated kinase 1a): 1.8 fold
  Fold Changes E030006K04Rik (RIKEN cDNA E030006K04 gene): 2.9 fold
  Fold Changes Eif2s3x (eukaryotic translation initiation factor 2, subunit 3, structural gene X-linked): 0.7 fold
  Fold Changes Eif4ebp1 (eukaryotic translation initiation factor 4E binding protein 1): 0.6 fold
  Fold Changes Eif4ebp2 (eukaryotic translation initiation factor 4E binding protein 2): 0.6 fold
  Fold Changes Enpep (glutamyl aminopeptidase): 0.6 fold
  Fold Changes Eps15 (epidermal growth factor receptor pathway substrate 15): 0.7 fold
  Fold Changes Erv4 (endogenous retroviral sequence 4 (with leucine t-RNA primer)): 5.2 fold
  Fold Changes Esr1 (estrogen receptor 1 (alpha)): 6.5 fold
  Fold Changes Fcgr2b (Fc receptor, IgG, low affinity Ilb): 0.1 fold
  Fold Changes G0s2 (G0/G1 switch gene 2): 1.5 fold
  Fold Changes Galnt1 (UDP-N-acetyl-alpha-D-galactosamine:polypeptide N-acetylgalactosaminyltra): 0.5 fold
  Fold Changes Gas5 (growth arrest specific 5): 0.6 fold
  Fold Changes Gpr12 (G-protein coupled receptor 12): 0.7 fold
  Fold Changes Gpx7 (glutathione peroxidase 7): 0.3 fold
  Fold Changes Gstm5 (glutathione S-transferase, mu 5): 0.6 fold
  Fold Changes Hbb-b1 (hemoglobin, beta adult major chain): 1.2 fold
  Fold Changes Hdac2 (histone deacetylase 2): 0.8 fold
  Fold Changes Hist2h3c2 (histone 2, H3c2): 1.5 fold
  Fold Changes Hmgcl (3-hydroxy-3-methylglutaryl-Coenzyme A lyase): 0.5 fold
  Fold Changes Hoxd8 (homeo box D8): 0.6 fold
  Fold Changes Htr1a (5-hydroxytryptamine (serotonin) receptor 1A): 4.2 fold
  Fold Changes Igfbp5 (insulin-like growth factor binding protein 5): 0.6 fold
  Fold Changes Itgb1 (integrin beta 1 (fibronectin receptor beta)): 0.7 fold
  Fold Changes Itpr1 (inositol 1,4,5-triphosphate receptor 1): 0.4 fold
  Fold Changes Junb (Jun-B oncogene): 0.4 fold
  Fold Changes Klf3 (Kruppel-like factor 3 (basic)): 5.9 fold
  Fold Changes Klrb1c (killer cell lectin-like receptor subfamily B member 1C): 0.2 fold
  Fold Changes Krtap3-1 (keratin associated protein 3-1): 0.7 fold
  Fold Changes Ksr (kinase suppressor of ras): 1.8 fold
  Fold Changes Lbp (lipopolysaccharide binding protein): 0.6 fold
  Fold Changes Ldh2 (lactate dehydrogenase 2, B chain): 1.6 fold
  Fold Changes Lpl (lipoprotein lipase): 1.4 fold
  Fold Changes Lypla1 (lysophospholipase 1): 4.8 fold
  Fold Changes Macf1 (microtubule-actin crosslinking factor 1): 0.5 fold
  Fold Changes Mapk9 (mitogen activated protein kinase 9): 2.8 fold
  Fold Changes Mapre3 (microtubule-associated protein, RP/EB family, member 3): 0.4 fold
  Fold Changes Mapt (microtubule-associated protein tau): 0.5 fold
  Fold Changes Matr3 (matrin 3): 0.6 fold
  Fold Changes Mnt (max binding protein): 0.6 fold
  Fold Changes Mt1 (metallothionein 1): 0.5 fold
  Fold Changes Mt2 (metallothionein 2): 0.3 fold
  Fold Changes Muc1 (mucin 1, transmembrane): 0.5 fold
  Fold Changes Myo5a (myosin Va): 0.1 fold
  Fold Changes Ndufb3 (NADH dehydrogenase (ubiquinone) 1 beta subcomplex 3): 1.2 fold
  Fold Changes Neurod6 (neurogenic differentiation 6): 0.1 fold
  Fold Changes Nnt (nicotinamide nucleotide transhydrogenase): 1.7 fold
  Fold Changes Npc1 (Niemann Pick type C1): 0.6 fold
  Fold Changes Nras (neuroblastoma ras oncogene): 0.6 fold
  Fold Changes Orc4l (origin recognition complex, subunit 4-like (S. cerevisiae)): 0.6 fold
  Fold Changes Pcdha12 (protocadherin alpha 12): 0.4 fold
  Fold Changes Pcnt2 (pericentrin 2): 1.6 fold
  Fold Changes Pdcd4 (programmed cell death 4): 0.6 fold
  Fold Changes Pdk4 (pyruvate dehydrogenase kinase, isoenzyme 4): 0.9 fold
  Fold Changes Pigr (polymeric immunoglobulin receptor): 0.7 fold
  Fold Changes Pkm2 (pyruvate kinase, muscle): 0.5 fold
  Fold Changes Plk1 (polo-like kinase 1 (Drosophila)): 0.3 fold
  Fold Changes Prp19 (PRP19/PSO4 homolog (S. cerevisiae)): 0.5 fold
  Fold Changes Psap (prosaposin): 17.3 fold
  Fold Changes Psma3 (proteasome (prosome, macropain) subunit, alpha type 3): 0.7 fold
  Fold Changes Psmc1 (protease (prosome, macropain) 26S subunit, ATPase 1): 0.5 fold
  Fold Changes Psmd8 (proteasome (prosome, macropain) 26S subunit, non-ATPase, 8): 0.7 fold
  Fold Changes Psmd11 (proteasome (prosome, macropain) 26S subunit, non-ATPase, 11): 0.6 fold
  Fold Changes Rab2 (RAB2, member RAS oncogene family): 0.9 fold
  Fold Changes Rbm17 (RNA binding motif protein 17): 0.7 fold
  Fold Changes Retn (resistin): 1.9 fold
  Fold Changes Rhoa (ras homolog gene family, member A): 1.4 fold
  Fold Changes Rpl30 (ribosomal protein L30): 0.7 fold
  Fold Changes Rpp14 (ribonuclease P 14 kDa subunit (human)): 0.7 fold
  Fold Changes Rrad (Ras-related associated with diabetes): 0.5 fold
  Fold Changes Rtn4 (reticulon 4): 0.9 fold
  Fold Changes Rwdd1 (RWD domain containing 1): 0.6 fold
  Fold Changes Sara2 (SAR1a gene homolog 2 (S. cerevisiae)): 0.8 fold
  Fold Changes Scamp2 (secretory carrier membrane protein 2): 0.7 fold
  Fold Changes Sgk (serum/glucocorticoid regulated kinase): 0.8 fold
  Fold Changes Siat6 (sialyltransferase 6 (N-acetyllacosaminide alpha 2,3-sialyltransferase)): 2 fold
  Fold Changes Skp1a (S-phase kinase-associated protein 1A): 0.5 fold
  Fold Changes Slc2a5 (solute carrier family 2 (facilitated glucose transporter), member 5): 0.2 fold
  Fold Changes Slc38a2 (solute carrier family 38, member 2): 0.8 fold
  Fold Changes Slpi (secretory leukocyte protease inhibitor): 1.1 fold
  Fold Changes Snx2 (sorting nexin 2): 1.5 fold
  Fold Changes Sorbs1 (sorbin and SH3 domain containing 1): 0.8 fold
  Fold Changes Spr (sepiapterin reductase): 1.4 fold
  Fold Changes Sri (sorcin): 2.3 fold
  Fold Changes St13 (suppression of tumorigenicity 13): 1.5 fold
  Fold Changes Stam2 (signal transducing adaptor molecule (SH3 domain and ITAM motif) 2): 4.3 fold
  Fold Changes Strap (serine/threonine kinase receptor associated protein): 0.6 fold
  Fold Changes Tcfl1 (transcription factor-like 1): 0.7 fold
  Fold Changes Tgm3 (transglutaminase 3, E polypeptide): 2.5 fold
  Fold Changes Tm4sf3 (transmembrane 4 superfamily member 3): 0.5 fold
  Fold Changes Tnpo1 (transportin 1): 0.4 fold
  Fold Changes Tnxb (tenascin XB): 1.4 fold
  Fold Changes Top1 (topoisomerase (DNA) I): 0.5 fold
  Fold Changes Transcribed sequence with strong similarity to protein sp: P49840 (H. sapiens): 0.8 fold
  Fold Changes Transcribed sequences: 0.7 fold
  Fold Changes Tsta3 (tissue specific transplantation antigen P35B): 0.9 fold
  Fold Changes Tubg2 (tubulin, gamma 2): 1.6 fold
  Fold Changes Ubb (ubiquitin B): 0.7 fold
  Fold Changes Ube2e1 (ubiquitin-conjugating enzyme E2E 1, UBC4/5 homolog (yeast)): 0.7 fold
  Fold Changes Upf3b (UPF3 regulator of nonsense transcripts homolog B (yeast)): 0.7 fold
  Fold Changes Utrn (utrophin): 1.7 fold
  Fold Changes Vps54 (vacuolar protein sorting 54 (yeast)): 0.4 fold
  Fold Changes Wars (tryptophanyl-tRNA synthetase): 1.9 fold
  Fold Changes Xcl1 (chemokine (C motif) ligand 1): 4.7 fold
  Fold Changes Xpo7 (exportin 7): 0.7 fold
  Fold Changes Zfp101 (zinc finger protein 101): 0.2 fold
  Fold Changes Zfp289 (zinc finger protein 289): 0.6 fold
Table 1 (down regulation)
  Fold Changes Rpl10a (ribosomal protein L10A): 0.4 fold
Table 1, first Itgav line
  Fold Changes Itgav (integrin alpha V): 0.2 fold
Table 1, second Itgav line
  Fold Changes Itgav (integrin alpha V): 0.7 fold
Table 2 (up regulation)
  Fold Changes Itgav (integrin alpha V): 4.6 fold
  Fold Changes Rpl10a (ribosomal protein L10A): 1.2 fold
